Results from patent US20230271933A1, “HETEROCYCLIC IMMUNOMODULATOR” (Beijing Innocare Pharma Tech Co., Ltd., priority 2020, published 2023).

How the values were obtained:
[1] = test system: NCI-H929 human myeloma cells; test: Inhibition of the proliferation of NCI-H929 cells (luminescent cell viability, CTG); format: cell-based; details: 6 days, CellTiter-Glo
Experimental: The effect of the compounds of the present invention on the proliferation of NCI-H929 human myeloma cells was evaluated by using a luminescent cell viability test experiment.
The compound was dissolved and diluted to 5 mM in DMSO, and then serially diluted 4-fold in DMSO to a minimum concentration of 0.31 μM. Each concentration was further diluted 50-fold with RPMI 1640 medium (Thermo Fisher, Cat. No. 72400-047). If the IC50 value of the compound was relatively low, the initial concentration of the compound could be lowered.
NCI-H929 cells (Nanjing Cobioer, Cat. No. CBP60243) were cultured in RPMI 1640 complete medium [containing 10% FBS (GIBCO, Cat. No. 10099-141) and 100 units/mL penicillin-streptomycin (Thermo Fisher, Cat. No. 15140122)]. Cells (15000 cells/mL) were plated in 90 μL of the complete medium in a 96-well plate and cultured overnight, and then 10 μL of the compound solution was added into each well. The cells were cultured in an incubator at 37° C. and 5% CO2 for 6 days. Then the cell culture plate was taken out and balanced to room temperature according to the instruction of the CellTilter-Glo (CTG) kit (Promega, Cat. No. G7572). 50 μL CTG reagent was added for complete lysis, the plate was placed at room temperature for 10 minutes, and the luminescence signal was read with a microplate reader (EnVision, Perkin Elmer). The group containing 0.2% DMSO medium was used as 0% inhibition. The XLfit software was used to plot the compound inhibition curve and calculate the inhibitory IC50 value.

IL-2 = test: Stimulation of IL-2 secretion in anti-CD3-stimulated hPBMC (ELISA); format: cell-based, human; details: anti-CD3 antibody, 72 hours
Experimental: (§1) The immunomodulatory function of the compound of the present invention was evaluated by detecting its effect on the secretion amount of TNFα and IL-2 in cells from the human peripheral blood mononuclear cells (hPBMC) by the enzyme linked immunosorbent assay (ELISA) method.
(§2) The peripheral blood of healthy volunteers was collected by using EDTA anticoagulant tubes, and diluted with phosphate buffered saline (PBS) containing 2% fetal bovine serum (Gibco, Cat. No. 10099-141) in an equal volume ratio. 30 mL of the resulting diluted sample was transferred into a Sepmate-50 centrifuge tube (Stemcell, Cat. No. 86450) to which 15 mL of a density-gradient centrifugation liquid (Sigma, Cat. No. 10771) had been added in advance, and centrifuged at room temperature at 1200×g for 10 minutes. The liquid containing PBMC in the upper layer was transferred to a new 50-mL centrifuge tube, and centrifuged at room temperature at 300×g for 8 minutes. The supernatant was discarded, and the resulting PBMC was resuspended to 5×10^6/mL by using RPMI 1640 medium (Gibco, Cat. No. 72400-047). 80 μL of the resulting suspension was added to each well in a 96-well plate.
(§3) Each concentration was further diluted 50-fold with RPMI 1640 medium. 10 μL of each compound solution was added into the cells in the above 96-well plate. The 96-well plate was placed in an incubator, and the cells were cultured at 37° C. and 5% CO2 for 1 hour. 10 μL of LPS (Sigma, Cat. No. L-2880) with a concentration of 100 ng/mL was added, and the cells were continuously cultured in the incubator at 37° C. and 5% CO2 overnight. Supernatants were collected for the detection of TNFα.
The above-mentioned 96-well plate can also be placed in an incubator, and the cells were cultured at 37° C. and 5% CO2 for 1 hour. 10 μL of anti-CD3 antibody (Thermo Fisher, Cat. No. 14-0037-82) with a concentration of 500 ng/mL was added, and the cells were continuously cultured in the incubator at 37° C. and 5% CO2 for 72 hours. Supernatants were collected for the detection of IL-2.
(§4) TNFα and IL-2 were detected respectively according to each instruction of the ELISA kits (R&D, Cat. No. DY210 and DY202, respectively) to obtain the OD450 values for each well. The group containing 0.2% DMSO medium was used as 0% inhibition or stimulation. The XLfit software was used to plot the compound inhibition or stimulation curve and calculate the corresponding IC50 or EC50.

TNFα = test: Inhibition of TNFα secretion in LPS-stimulated hPBMC (ELISA); format: cell-based; details: Homo sapiens, overnight, read-out: IC50 (nM) for the inhibition of the TNFa secretion
Experimental: as §1, §2, §3, §4

[2] = In vivo pharmacokinetic experiment in rats; details: male Sprague-Dawley rats, n = 3; for F: PO 5 mpk vs IV 1 mpk; for clearance / Vd / AUC(0-t) / Cmax: rat, plasma; for clearance / Vd: 1 mg/kg, IV 1 mpk; for Vd: read-out: VSS; for AUC(0-t) / Cmax: 5 mg/kg, PO 5 mpk
Experimental: The compound to be tested was dissolved in 5% DMA+20% Solutol+75% Saline vehicle to prepare a 0.5 mg/mL administration solution.
2 mL/kg of the administration solution was administered through the intravenous injection (IV) at a dose of 1 mg/kg to three fed male Sprague-Dawley rats, respectively. Blood samples were collected at 0.083, 0.25, 0.5, 1, 2, 4, 8 and 24 hours after administration. 10 mL/kg of the administration solution was administered by gavage (PO) at a dose of 5 mg/kg to other three fed male Sprague-Dawley rats, respectively. Blood samples were collected at 0.25, 0.5, 1, 2, 4, 8 and 24 hours after administration.
The concentration of the compound to be tested in plasma was obtained with the LC-MS/MS quantitative analysis with an API-4500 mass spectrometer, and the limit of quantitation (LOQ) for the plasma was 1 ng/mL.

C[C@H](c1ccc(COc2cccc3c2CN([C@H]2CCC(=O)NC2=O)C3=O)cc1)N1CCN(C(=O)C2CC2)CC1 [Compound 11, (S)-3-(4-((4-((R)-1-(4-(cyclopropanecarbonyl)piperazin-1-yl)ethyl)benzyl)oxy)-1-oxoisoindolin-2-yl)piperidine-2,6-dione]
IC50 ([1]; Homo sapiens, NCI-H929, 144 h): 2.2 nM

CC(C)(c1ccc(COc2cccc3c2CN([C@H]2CCC(=O)NC2=O)C3=O)cc1)N1CCN(c2ccc(C#N)cc2F)CC1 [Compound 8, (S)-4-(4-(2-(4-(((2-(2,6-dioxopiperidin-3-yl)-1-oxoisoindolin-4-yl)oxy)methyl)phenyl)-prop-2-yl)piperazin-1-yl)-3-fluorobenzonitrile]
EC50 (IL-2; Homo sapiens): 4 nM
IC50 ([1]; Homo sapiens, NCI-H929, 144 h): 0.5 nM

C[C@H](c1ccc(COc2cccc3c2CN([C@H]2CCC(=O)NC2=O)C3=O)cc1)N1CCN(c2ccncn2)CC1 [Compound 15, (S)-3-(1-oxo-4-((4-((R)-1-(4-(pyrimidin-4-yl)piperazin-1-yl)ethyl)benzyl)oxy)isoindolin-2-yl)piperidine-2,6-dione]
EC50 (IL-2; Homo sapiens): 19 nM
IC50 ([1]; Homo sapiens, NCI-H929, 144 h): 0.4 nM
IC50 (TNFα): 1.7 nM

C[C@H](c1ccc(COc2cccc3c2CN([C@H]2CCC(=O)NC2=O)C3=O)cc1)N1CCN(C)CC1 [Compound 14, (S)-3-(4-((4-((R)-1-(4-methylpiperazin-1-yl)ethyl)benzyl)oxy)-1-oxoisoindolin-2-yl)piperidine-2,6-dione]
IC50 ([1]; Homo sapiens, NCI-H929, 144 h): 1.4 nM

C[C@H](c1ccc(COc2cccc3c2CN([C@H]2CCC(=O)NC2=O)C3=O)cc1)N1CCN(C2CC2)CC1 [Compound 12, (S)-3-(4-((4-((R)-1-(4-cyclopropylpiperazin-1-yl)ethyl)benzyl)oxy)-1-oxoisoindolin-2-yl)piperidine-2,6-dione]
IC50 ([1]; Homo sapiens, NCI-H929, 144 h): 0.3 nM

C[C@@H](c1ccc(COc2cccc3c2CN([C@H]2CCC(=O)NC2=O)C3=O)cc1)N1CCN(c2ccc(C#N)cc2F)CC1 [Compound 7, 4-(4-((S)-1-(4-(((2-((S)-2,6-dioxopiperidin-3-yl)-1-oxoisoindolin-4-yl)oxy)methyl)phenyl)-ethyl)piperazin-1-yl)-3-fluorobenzonitrile]
EC50 (IL-2; Homo sapiens): 3.2 nM
F [2]: 19%
clearance [2]: 13 mL/min/kg
Vd [2]: 2.4 L/kg
AUC(0-t) [2]: 1200 ng·h/mL
Cmax [2]: 121 ng/mL
IC50 ([1]; Homo sapiens, NCI-H929, 144 h): 0.2 nM
IC50 (TNFα): 2.8 nM

CC(C)(c1ccc(COc2cccc3c2CN([C@H]2CCC(=O)NC2=O)C3=O)cc1)N1CCOCC1 [Compound 5, (S)-3-(4-((4-(2-morpholinopropan-2-yl)benzyl)oxy)-1-oxoisoindolin-2-yl)piperidine-2,6-dione]
F [2]: 4%
clearance [2]: 110 mL/min/kg
Vd [2]: 3.3 L/kg
AUC(0-t) [2]: 8.8 ng·h/mL
Cmax [2]: 1.6 ng/mL
IC50 ([1]; Homo sapiens, NCI-H929, 144 h): 7.8 nM

CC(c1ccc(COc2cccc3c2CN(C2CCC(=O)NC2=O)C3=O)cc1)N1CCOCC1 (stereo not drawn) [Compound 1, 3-(4-((4-(1-morpholinoethyl)benzyl)oxy)-1-oxoisoindolin-2-yl)piperidine-2,6-dione]
IC50 ([1]; Homo sapiens, NCI-H929, 144 h): 7.7 nM

C[C@H](c1ccc(COc2cccc3c2CN(C2CCC(=O)NC2=O)C3=O)cc1)N1CCOCC1 (stereo partly drawn) [Compound 3, 3-(4-((4-((R)-1-morpholinoethyl)benzyl)oxy)-1-oxoisoindolin-2-yl)piperidine-2,6-dione]
EC50 (IL-2; Homo sapiens): 8 nM
F [2]: 20%
clearance [2]: 61 mL/min/kg
Vd [2]: 4.2 L/kg
AUC(0-t) [2]: 270 ng·h/mL
Cmax [2]: 105 ng/mL
IC50 ([1]; Homo sapiens, NCI-H929, 144 h): 7 nM
IC50 (TNFα): 1.1 nM

C[C@H](c1ccc(COc2cccc3c2CN([C@H]2CCC(=O)NC2=O)C3=O)cc1)N1CCN(S(C)(=O)=O)CC1 [Compound 13, (S)-3-(4-((4-((R)-1-(4-(methylsulfonyl)piperazin-1-yl)ethyl)benzyl)oxy)-1-oxoisoindolin-2-yl)piperidine-2,6-dione]
IC50 ([1]; Homo sapiens, NCI-H929, 144 h): 1.2 nM

CC(c1ccc(COc2cccc3c2CN([C@H]2CCC(=O)NC2=O)C3=O)cc1)N1CC2CC1CO2 (single isomer, unassigned) [Compound 19]
EC50 (IL-2): 11 nM
IC50 [1]: 3.8 nM
IC50 (TNFα): 0.8 nM

N#CC(c1ccc(COc2cccc3c2CN([C@H]2CCC(=O)NC2=O)C3=O)cc1)N1CCOCC1 (stereo partly drawn) [Compound 10, 2-(4-(((2-((S)-2,6-dioxopiperidin-3-yl)-1-oxoisoindolin-4-yl)oxy)methyl)phenyl)-2-morpholinoacetonitrile]
EC50 (IL-2; Homo sapiens): 46 nM
IC50 ([1]; Homo sapiens, NCI-H929, 144 h): 11 nM
IC50 (TNFα): 2.1 nM

C[C@H](c1ccc(COc2cccc3c2CN([C@H]2CCC(=O)NC2=O)C3=O)cc1)N1CCN(c2ccncc2F)CC1 [Compound 20, (S)-3-(4-((4-((R)-1-(4-(3-fluoropyridin-4-yl)piperazin-1-yl)ethyl)benzyl)oxy)-1-oxoisoindolin-2-yl)piperidine-2,6-dione]
EC50 (IL-2; Homo sapiens): 1.9 nM
IC50 ([1]; Homo sapiens, NCI-H929, 144 h): 0.1 nM

C[C@H](c1ccc(COc2cccc3c2CN([C@H]2CCC(=O)NC2=O)C3=O)cc1)N1CCN(c2ccc(F)cc2F)CC1 [Compound 17, (S)-3-(4-((4-((R)-1-(4-(2,4-difluorophenyl)piperazin-1-yl)ethyl)benzyl)oxy)-1-oxoisoindolin-2-yl)piperidine-2,6-dione]
IC50 ([1]; Homo sapiens, NCI-H929, 144 h): 0.3 nM
IC50 (TNFα): 3.7 nM

C[C@@H](c1ccc(COc2cccc3c2CN(C2CCC(=O)NC2=O)C3=O)cc1)N1CCOCC1 (stereo partly drawn) [Compound 4, 3-(4-((4-((S)-1-morpholinoethyl)-benzyl)oxy)-1-oxoisoindolin-2-yl)piperidine-2,6-dione]
EC50 (IL-2; Homo sapiens): 4.1 nM
IC50 ([1]; Homo sapiens, NCI-H929, 144 h): 5 nM
IC50 (TNFα): 0.9 nM

O=C1CCC(N2Cc3c(OCc4ccc(C5(N6CCOCC6)CC5)cc4)cccc3C2=O)C(=O)N1 (stereo not drawn) [Compound 2, 3-(4-((4-(1-morpholinocyclopropyl)benzyl)oxy)-1-oxoisoindolin-2-yl)piperidine-2,6-dione]
EC50 (IL-2; Homo sapiens): 10 nM
IC50 ([1]; Homo sapiens, NCI-H929, 144 h): 35 nM
IC50 (TNFα): 7.8 nM

N#Cc1ccc(N2CCN(C3(c4ccc(COc5cccc6c5CN([C@H]5CCC(=O)NC5=O)C6=O)cc4)CC3)CC2)c(F)c1 [Compound 9, (S)-4-(4-(1-(4-(((2-(2,6-dioxopiperidin-3-yl)-1-oxoisoindolin-4-yl)oxy)methyl)phenyl)-cyclopropyl)piperazin-1-yl)-3-fluorobenzonitrile]
IC50 ([1]; Homo sapiens, NCI-H929, 144 h): 1.1 nM

CC(c1ccc(COc2cccc3c2CN([C@H]2CCC(=O)NC2=O)C3=O)cc1)N1CC2CC1CO2 (single isomer, unassigned) [Compound 18]
EC50 (IL-2; Homo sapiens): 11 nM
IC50 ([1]; Homo sapiens, NCI-H929, 144 h): 3.1 nM
